Results taken from the NIST ThermoML archive (doi:10.1016/j.fluid.2010.03.010).

Details: Liquid, Vibrating tube method

CCCC[n+]1ccn(C)c1.O=S(=O)([N-]S(=O)(=O)C(F)(F)F)C(F)(F)F
Details	mass density [kg/m3]
293.15 K, 100 kPa	1441.8
293.15 K, 101.33 kPa	1441.34
293.15 K, 250 kPa	1441.9
293.15 K, 500 kPa	1442.1
293.15 K, 1000 kPa	1442.4
293.15 K, 2000 kPa	1443.2
293.15 K, 4990 kPa	1445.4
293.15 K, 10000 kPa	1449
293.15 K, 15000 kPa	1452.5
293.15 K, 20000 kPa	1456
293.15 K, 25010 kPa	1459.3
293.15 K, 30000 kPa	1462.6
293.15 K, 35000 kPa	1465.8
293.15 K, 40000 kPa	1469.1
293.15 K, 45000 kPa	1472.2
293.15 K, 50000 kPa	1475.3
293.15 K, 55000 kPa	1478.3
293.15 K, 59970 kPa	1481.3
294.15 K, 101.33 kPa	1440.37
295.15 K, 101.33 kPa	1439.4
296.15 K, 101.33 kPa	1438.43
297.15 K, 101.33 kPa	1437.46
298.15 K, 101.33 kPa	1436.5
299.15 K, 101.33 kPa	1435.53
300.15 K, 101.33 kPa	1434.57
301.15 K, 101.33 kPa	1433.61
302.15 K, 101.33 kPa	1432.64
303.15 K, 100 kPa	1432.3
303.15 K, 101.33 kPa	1431.69
303.15 K, 250 kPa	1432.4
303.15 K, 500 kPa	1432.6
303.15 K, 1000 kPa	1432.9
303.15 K, 2000 kPa	1433.7
303.15 K, 5000 kPa	1436
303.15 K, 10000 kPa	1439.7
303.15 K, 15000 kPa	1443.3
303.15 K, 20000 kPa	1446.8
303.15 K, 25000 kPa	1450.2
303.15 K, 30000 kPa	1453.6
303.15 K, 34990 kPa	1456.9
303.15 K, 40000 kPa	1460.2
303.15 K, 45010 kPa	1463.4
303.15 K, 50000 kPa	1466.5
303.15 K, 54990 kPa	1469.6
303.15 K, 60010 kPa	1472.7
304.15 K, 101.33 kPa	1430.73
305.15 K, 101.33 kPa	1429.77
306.15 K, 101.33 kPa	1428.82
307.15 K, 101.33 kPa	1427.86
308.15 K, 101.33 kPa	1426.9
309.15 K, 101.33 kPa	1425.95
310.15 K, 101.33 kPa	1425
311.15 K, 101.33 kPa	1424.05
312.15 K, 101.33 kPa	1423.1
313.15 K, 100 kPa	1422.8
313.15 K, 101.33 kPa	1422.15
313.15 K, 250 kPa	1422.9
313.15 K, 500 kPa	1423.1
313.15 K, 1000 kPa	1423.5
313.15 K, 2000 kPa	1424.3
313.15 K, 5000 kPa	1426.6
313.15 K, 10000 kPa	1430.4
313.15 K, 15010 kPa	1434.1
313.15 K, 20010 kPa	1437.7
313.15 K, 25000 kPa	1441.2
313.15 K, 30000 kPa	1444.7
313.15 K, 34990 kPa	1448
313.15 K, 40000 kPa	1451.4
313.15 K, 45010 kPa	1454.6
313.15 K, 50010 kPa	1457.9
313.15 K, 55000 kPa	1461
313.15 K, 60000 kPa	1464.1
314.15 K, 101.33 kPa	1421.2
315.15 K, 101.33 kPa	1420.25
316.15 K, 101.33 kPa	1419.3
317.15 K, 101.33 kPa	1418.36
318.15 K, 101.33 kPa	1417.41
319.15 K, 101.33 kPa	1416.47
320.15 K, 101.33 kPa	1415.53
321.15 K, 101.33 kPa	1414.58
322.15 K, 101.33 kPa	1413.64
323.15 K, 100 kPa	1413.5
323.15 K, 101.33 kPa	1412.7
323.15 K, 250 kPa	1413.6
323.15 K, 500 kPa	1413.8
323.15 K, 1010 kPa	1414.2
323.15 K, 2000 kPa	1415
323.15 K, 4990 kPa	1417.4
323.15 K, 10010 kPa	1421.3
323.15 K, 14990 kPa	1425.1
323.15 K, 20010 kPa	1428.8
323.15 K, 24990 kPa	1432.4
323.15 K, 30010 kPa	1435.9
323.15 K, 35010 kPa	1439.4
323.15 K, 40000 kPa	1442.8
323.15 K, 45000 kPa	1446.1
323.15 K, 50000 kPa	1449.4
323.15 K, 55000 kPa	1452.6
323.15 K, 60000 kPa	1455.8
324.15 K, 101.33 kPa	1411.76
325.15 K, 101.33 kPa	1410.82
326.15 K, 101.33 kPa	1409.88
327.15 K, 101.33 kPa	1408.94
328.15 K, 101.33 kPa	1408
329.15 K, 101.33 kPa	1407.06
330.15 K, 101.33 kPa	1406.12
331.15 K, 101.33 kPa	1405.19
332.15 K, 101.33 kPa	1404.25
333.15 K, 100 kPa	1404.2
333.15 K, 101.33 kPa	1403.32
333.15 K, 250 kPa	1404.3
333.15 K, 500 kPa	1404.5
333.15 K, 1010 kPa	1404.9
333.15 K, 2000 kPa	1405.8
333.15 K, 4990 kPa	1408.2
333.15 K, 10000 kPa	1412.3
333.15 K, 14990 kPa	1416.2
333.15 K, 20010 kPa	1420
333.15 K, 25000 kPa	1423.6
333.15 K, 30010 kPa	1427.3
333.15 K, 34990 kPa	1430.8
333.15 K, 40010 kPa	1434.3
333.15 K, 45000 kPa	1437.6
333.15 K, 50000 kPa	1441
333.15 K, 54990 kPa	1444.3
333.15 K, 60000 kPa	1447.5
334.15 K, 101.33 kPa	1402.39
335.15 K, 101.33 kPa	1401.45
336.15 K, 101.33 kPa	1400.52
337.15 K, 101.33 kPa	1399.59
338.15 K, 101.33 kPa	1398.66
339.15 K, 101.33 kPa	1397.73
340.15 K, 101.33 kPa	1396.8
341.15 K, 101.33 kPa	1395.87
342.15 K, 101.33 kPa	1394.94
343.15 K, 100 kPa	1395
343.15 K, 101.33 kPa	1394.01
343.15 K, 250 kPa	1395.1
343.15 K, 500 kPa	1395.3
343.15 K, 1000 kPa	1395.7
343.15 K, 2000 kPa	1396.6
343.15 K, 4990 kPa	1399.1
343.15 K, 10010 kPa	1403.3
343.15 K, 14910 kPa	1407.2
343.15 K, 20000 kPa	1411.2
343.15 K, 24990 kPa	1414.9
343.15 K, 30010 kPa	1418.7
343.15 K, 34990 kPa	1422.3
343.15 K, 39990 kPa	1425.8
343.15 K, 45000 kPa	1429.3
343.15 K, 50000 kPa	1432.7
343.15 K, 55000 kPa	1436.1
343.15 K, 60000 kPa	1439.4
344.15 K, 101.33 kPa	1393.09
